Test results from ChEMBL document CHEMBL1201862, “PubChem BioAssay data set” (2004).
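Step 1: Grow cells in 96-well plates. Step 2: Expose to compound for 48 hours at 5 concentrations. Step 3: Interpolate endpoints linearly; if unreached, use highest concentration. At the GI50, growth is halved.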 Activity calls are given as the source filed them. Rule as the data show it: active = GI50 up to about 1.1 µM and inactive = higher.

Tests used:
Test in all cases: NCI tumour cell line growth inhibition, 48 h
MDA-MB-435 = system: MDA-MB-435
RXF 393 = system: RXF 393
SW-620 = system: SW-620
NCI-H23 = system: NCI-H23
LOX IMVI = system: LOX IMVI
K562 = system: K562
MCF7 = system: MCF7
TK-10 = system: TK-10
HOP-62 = system: HOP-62
HCT-15 = system: HCT-15
IGROV-1 = system: IGROV-1
NCI-H460 = system: NCI-H460
SR = system: SR
786-0 = system: 786-0
MDA-MB-231 = system: MDA-MB-231
A498 = system: A498
SN12C = system: SN12C
NCI/ADR-RES = system: NCI/ADR-RES
DU-145 = system: DU-145
HOP-92 = system: HOP-92
OVCAR-5 = system: OVCAR-5
OVCAR-3 = system: OVCAR-3
SF-268 = system: SF-268
NCI-H226 = system: NCI-H226
Hs-578T = system: Hs-578T
EKVX = system: EKVX
HL-60 = system: HL-60
OVCAR-8 = system: OVCAR-8
PC-3 = system: PC-3
BT-549 = system: BT-549
UACC-62 = system: UACC-62
ACHN = system: ACHN
UACC-257 = system: UACC-257
UO-31 = system: UO-31
HCT-116 = system: HCT-116
A549 = system: A549
MDA-N = system: MDA-N
OVCAR-4 = system: OVCAR-4
SNB-75 = system: SNB-75
COLO 205 = system: COLO 205
HT-29 = system: HT-29
NCI-H522 = system: NCI-H522
CAKI-1 = system: CAKI-1
HCC 2998 = system: HCC 2998
SF-295 = system: SF-295
M14 = system: M14
SK-MEL-5 = system: SK-MEL-5
T47D = system: T47D
MOLT-4 = system: MOLT-4
U-251 = system: U-251
Malme-3M = system: Malme-3M
CCRF-CEM = system: CCRF-CEM
SF-539 = system: SF-539
SNB-19 = system: SNB-19
SK-MEL-28 = system: SK-MEL-28
KM12 = system: KM12
SK-OV-3 = system: SK-OV-3
SK-MEL-2 = system: SK-MEL-2
RPMI-8226 = system: RPMI-8226

## N=C1N=C(N)c2cc3c(cc21)SCCSCCCSCCS3
MDA-MB-435
  GI50: 11.1 µM (inactive)
RXF 393
  GI50: 15.8 µM (inactive)
SW-620
  GI50: 11.6 µM (inactive)
NCI-H23
  GI50: 11.3 µM (inactive)
LOX IMVI
  GI50: 4.38 µM (inactive)
K562
  GI50: 4.71 µM (inactive)
MCF7
  GI50: 27 µM (inactive)
TK-10
  GI50: 15.1 µM (inactive)
HOP-62
  GI50: 13.6 µM (inactive)
HCT-15
  GI50: 14.3 µM
IGROV-1
  GI50: 17.2 µM (inactive)
NCI-H460
  GI50: 13.3 µM (inactive)
SR
  GI50: 11.1 µM (inactive)
786-0
  GI50: 14.2 µM (inactive)
MDA-MB-231
  GI50: 16 µM (inactive)
A498
  GI50: > 44.7 µM (inactive)
SN12C
  GI50: 14.6 µM (inactive)
NCI/ADR-RES
  GI50: 58.1 µM (inactive)
DU-145
  GI50: 31.6 µM (inactive)
HOP-92
  GI50: 23.1 µM (inactive)
OVCAR-5
  GI50: 18.4 µM (inactive)
OVCAR-3
  GI50: 11.8 µM (inactive)
SF-268
  GI50: 12.8 µM (inactive)
NCI-H226
  GI50: 20.5 µM (inactive)
Hs-578T
  GI50: 10.1 µM (inactive)
EKVX
  GI50: 19.9 µM (inactive)
HL-60
  GI50: 3.77 µM (inactive)
OVCAR-8
  GI50: 18 µM (inactive)
PC-3
  GI50: 15.1 µM (inactive)
BT-549
  GI50: 14.1 µM (inactive)
UACC-62
  GI50: 22 µM (inactive)
ACHN
  GI50: 12.9 µM (inactive)
UACC-257
  GI50: 20.2 µM (inactive)
UO-31
  GI50: 49.9 µM (inactive)
HCT-116
  GI50: 9.59 µM (inactive)
A549
  GI50: 18.7 µM (inactive)
MDA-N
  GI50: 15 µM (inactive)
OVCAR-4
  GI50: 19.8 µM (inactive)
SNB-75
  GI50: 14.8 µM (inactive)
COLO 205
  GI50: 12 µM (inactive)
HT-29
  GI50: 11.2 µM (inactive)
NCI-H522
  GI50: 2.8 µM (inactive)
CAKI-1
  GI50: 42.4 µM (inactive)
HCC 2998
  GI50: 9.62 µM (inactive)
SF-295
  GI50: 13.9 µM (inactive)
M14
  GI50: 16.6 µM (inactive)
SK-MEL-5
  GI50: 16 µM (inactive)
T47D
  GI50: 24.8 µM (inactive)
MOLT-4
  GI50: 10.2 µM (inactive)
U-251
  GI50: 15.1 µM (inactive)
Malme-3M
  GI50: 20.5 µM (inactive)
CCRF-CEM
  GI50: 3.95 µM (inactive)
SF-539
  GI50: 20.1 µM (inactive)
SNB-19
  GI50: 15.5 µM (inactive)
SK-MEL-28
  GI50: 14.6 µM (inactive)
KM12
  GI50: 11.9 µM (inactive)
SK-OV-3
  GI50: 18.5 µM (inactive)
SK-MEL-2
  GI50: 16.1 µM (inactive)
RPMI-8226
  GI50: > 10 µM (inactive)

## COc1cc(/C=C/C(=O)O)ccc1OS(=O)(=O)O
MDA-MB-435
  GI50: > 100 µM (inactive)
RXF 393
  GI50: > 100 µM (inactive)
SW-620
  GI50: > 100 µM (inactive)
NCI-H23
  GI50: > 100 µM (inactive)
LOX IMVI
  GI50: > 100 µM (inactive)
K562
  GI50: > 100 µM (inactive)
MCF7
  GI50: > 100 µM (inactive)
TK-10
  GI50: > 100 µM (inactive)
HOP-62
  GI50: > 100 µM (inactive)
HCT-15
  GI50: > 100 µM
IGROV-1
  GI50: > 100 µM (inactive)
NCI-H460
  GI50: > 100 µM (inactive)
SR
  GI50: > 100 µM (inactive)
786-0
  GI50: > 100 µM (inactive)
MDA-MB-231
  GI50: > 100 µM (inactive)
A498
  GI50: > 100 µM (inactive)
SN12C
  GI50: > 100 µM (inactive)
NCI/ADR-RES
  GI50: > 100 µM (inactive)
DU-145
  GI50: > 100 µM (inactive)
HOP-92
  GI50: > 100 µM (inactive)
OVCAR-5
  GI50: > 100 µM (inactive)
OVCAR-3
  GI50: > 100 µM (inactive)
SF-268
  GI50: > 100 µM (inactive)
NCI-H226
  GI50: > 100 µM (inactive)
Hs-578T
  GI50: > 100 µM (inactive)
EKVX
  GI50: > 100 µM (inactive)
HL-60
  GI50: > 100 µM (inactive)
OVCAR-8
  GI50: > 100 µM (inactive)
PC-3
  GI50: > 100 µM (inactive)
BT-549
  GI50: > 100 µM (inactive)
UACC-62
  GI50: > 100 µM (inactive)
ACHN
  GI50: > 100 µM (inactive)
UACC-257
  GI50: > 100 µM (inactive)
UO-31
  GI50: > 100 µM (inactive)
HCT-116
  GI50: > 100 µM (inactive)
A549
  GI50: > 100 µM (inactive)
MDA-N
  GI50: > 100 µM (inactive)
OVCAR-4
  GI50: > 100 µM (inactive)
SNB-75
  GI50: > 100 µM (inactive)
COLO 205
  GI50: > 100 µM (inactive)
HT-29
  GI50: > 100 µM (inactive)
NCI-H522
  GI50: > 100 µM (inactive)
CAKI-1
  GI50: > 100 µM (inactive)
HCC 2998
  GI50: > 100 µM (inactive)
SF-295
  GI50: > 100 µM (inactive)
M14
  GI50: > 100 µM (inactive)
SK-MEL-5
  GI50: > 100 µM (inactive)
T47D
  GI50: > 100 µM (inactive)
MOLT-4
  GI50: > 100 µM (inactive)
U-251
  GI50: > 100 µM (inactive)
Malme-3M
  GI50: > 100 µM (inactive)
CCRF-CEM
  GI50: > 100 µM (inactive)
SF-539
  GI50: > 100 µM (inactive)
SNB-19
  GI50: > 100 µM (inactive)
SK-MEL-28
  GI50: > 100 µM (inactive)
KM12
  GI50: > 100 µM (inactive)
SK-OV-3
  GI50: > 100 µM (inactive)
SK-MEL-2
  GI50: > 100 µM (inactive)
RPMI-8226
  GI50: > 100 µM (inactive)
